Results: EP0019223A1, “Optically active hydantoin derivatives, their synthesis, pharmaceutical formulations containing them, and intermediates” (THE WELLCOME FOUNDATION LIMITED, priority 1979, dated 1980)

Assays:
[1] = system: human platelet rich plasma; assay: Inhibition of ADP-stimulated platelet aggregation in fresh human platelet rich plasma (Born aggregometer); assay type: cell-based; details: for Inhibition of platelet aggregation x PGE1: relative potency with respect to PGE1, 1 minute incubation at 37°C, ADP 2 to 5 µM; for activity (anti-platelet-aggregation) times that of PGE1: summary values given in the description
Method: Aggregation of platelets in […] of fresh human platelet. rich plasma (PRP) was monitored in a Born aggregometer.
The compound to be tested was added to the PRP at the desired concentration, and the resulting mixture incubated at 37°C for 1 minute after which platelet aggregation was stimulated by the addition of adenosine diphosphate (ADR) in a concentration just causing maximal aggregation (2 to 5 µM).
The anti-aggregatory effect of the compound was assessed by measuring the percentage inhibition of platelet aggregation in the presence of the compound as compared with when it was completely absent.

blood platelets = assay: Aggregation tests on rabbits (combination with phosphodiesterase inhibitor); assay type: in vivo; details: dipyridamole combined with the (5S,3R) isomer

IC50 ([1]; inhibition of platelet aggregation, human PRP) [µg/mL]	Structure (SMILES)	Inhibition of platelet aggregation x PGE1 ([1]; first of two experiments)	Inhibition of platelet aggregation x PGE1 ([1]; second of two experiments) [x PGE1]	activity (anti-platelet-aggregation) times that of PGE1 [1]	anti-platelet-aggregation inhibitory effect relative to the activity of the corresponding racemate ([1]; compared with racemate of (5S,3R) and (5R,3S) isomers)	potentiation of the anti-aggregatory effect of the active compound ([1]; dipyridamole combined with the (5S,3R) isomer, human platelet rich plasma)	potentiation of the anti-aggregatory effect of the active compound (blood platelets)
	O=C(O)CCCCCC[C@@H]1C(=O)NC(=O)N1CC[C@@H](O)C1CCCCC1 [[(5R),(3R)], (5R)-5-(6-carboxyhexyl)-1-[(3R) - 3-cyclohexyl 3-hydroxypropyl] hydantoin]	0.05 x PGE1	0.04	0.05 times that of PGE1			
> 2	O=C(O)CCCCCC[C@@H]1C(=O)NC(=O)N1CC[C@H](O)C1CCCCC1 [[(5R),(3S)], (5R)-5-(6-carboxyhexyl)-1-[(3S)-3-cyclohexyl-3-hydroxypropyl]hydantoin]	inactive		inactive			
	O=C(O)CCCCCC[C@H]1C(=O)NC(=O)N1CC[C@@H](O)C1CCCCC1 [[(5S),(3R)], (5S)-5-(6-carboxyhexyl)-1-[(3R)-3-cyclohexyl-3-hydroxypropyl] hydantoin]	83 x PGE1	47	~40 times that of PGE1	at least twice		
	O=C(O)CCCCCC[C@H]1C(=O)NC(=O)N1CC[C@H](O)C1CCCCC1 [[(5S),(3S)], (5S)-5-(6-carboxyhexyl)-1-[(3S)-3-cyclohexyl-3-hydroxypropyl]hydantoin]	0.07 x PGE1	0.05	0.06 times that of PGE1			
	OCCN(CCO)c1nc(N2CCCCC2)c2nc(N(CCO)CCO)nc(N3CCCCC3)c2n1 [dipyridamole, 2,2',2",2'"-(4,8-dipiperidinopy-rimido [5,4-d]pyrimidine-2,6-diyldinitrilo)tetraethanol, reference compound]					potentation of the anti-aggregatory effect	potentation of the anti-aggregatory effect
